Experimental data published in US7763617B2, “Pyrazolopyridine-4-yl pyridazinone derivatives and addition salts thereof, and PDE inhibitors comprising the same derivatives or salts as active ingredient” (Kyorin Pharmaceutical Co., Ltd., priority 2005, dated 2010).

Tests used:
[1] = biological target: T1, PDE3A catalytic domain (PDE3Acat) (Homo sapiens, UniProt Q14432); assay: Inhibition of phosphodiesterase activity, [3H]-cAMP hydrolysis, recombinant PDE3Acat; format: biochemical; conditions: human recombinant PDE3Acat, cAMP 2 μmol/L; read-out: IC50(μmol/L) PDE3
T1 construct: cDNA fragments of PDE3A catalytic domain (indicated as “cat,” hereinafter); made in house; host or cells: Sf9 insect cells (baculovirus, Bac-to-Bac)
T1 sequence (Q14432 674-1093 limits assumed): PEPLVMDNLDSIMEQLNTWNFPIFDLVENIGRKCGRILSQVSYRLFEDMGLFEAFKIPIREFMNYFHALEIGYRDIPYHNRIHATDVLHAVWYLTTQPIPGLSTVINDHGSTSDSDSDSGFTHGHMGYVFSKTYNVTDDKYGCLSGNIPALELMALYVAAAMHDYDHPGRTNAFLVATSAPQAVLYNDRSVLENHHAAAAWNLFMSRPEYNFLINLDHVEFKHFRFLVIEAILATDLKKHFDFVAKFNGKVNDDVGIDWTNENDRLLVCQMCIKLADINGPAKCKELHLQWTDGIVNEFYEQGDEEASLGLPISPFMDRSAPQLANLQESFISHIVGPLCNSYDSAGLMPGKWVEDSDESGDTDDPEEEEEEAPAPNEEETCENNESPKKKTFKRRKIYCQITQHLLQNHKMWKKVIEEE
Experimental: (§1) RT-PCR was performed to isolate cDNA fragments of PDE3A catalytic domain (indicated as “cat,” hereinafter), PDE4Bcat, PDE5Acat and PDE10A1 from human RNA. Using Gateway system (Invitrogen) and Bac-to-Bac (registered trademark) Baculovirus Expression system (Invitrogen), the isolated cDNA fragments were transfected into Sf9 insect cells for expression of the PDE proteins. The recombinant PDE3Acat, PDE4Bcat, PDE5Acat and PDE10A1 proteins were isolated from culture supernatant or cell extracts of Sf9 cells expressed high levels of these proteins by ion-exchange chromatography and used for the following experiments.
(§2) 4 mmol/L solution of each test compound was serially diluted 4-fold with 15% DMSO solution to prepare the solutions with concentrations of 15 nmol/L to 4 mmol/L (final concentrations=1.5 nmol/L-400 μmol/L). 10 μL of each test compound solution was added to each well of 96 plate with 10 μL of [^3H]-cAMP or [^3H]-cGMP solution, diluted with a buffer (40 mmol/L Tris-HCl (pH 7.4), 10 mmol/L MgCl2) to the concentration shown in Table 20 and 40 μL of each of the human recombinant PDE proteins in units shown in Table 20. The plate was incubated at 30° C. for 20 min, and then at 65° C. for 2 min. Subsequently, 25 μL of 1 mg/mL 5′-nucleotidase (Crotalus atrox venom, Sigma) was added to each well and the plate was incubated at 30° C. for 10 min. 200 μL of Dowex solution (300 mg/mL Dowex 1×8-400 (Sigma Aldrich), 33% ethanol) was then added to each well and the plate was shaken at 4° C. for 20 min. Subsequently, 200 μL of MicroScint 20 (Packard) was added to each well and the radioactivity of each sample was measured by a scintillation counter (Topcount, Packard) IC50 was calculated by GraphPad Prism v3.03 (GraphPad Software).

[2] = biological target: T2, PDE4Bcat (Homo sapiens, UniProt Q07343); assay: Inhibition of phosphodiesterase activity, [3H]-cAMP hydrolysis, recombinant PDE4Bcat; format: biochemical; conditions: cAMP 2 μmol/L, read-out: IC50(μmol/L) PDE4
T2 construct: catalytic domain (indicated as “cat,” hereinafter), PDE4Bcat; made in house; host or cells: Sf9 insect cells (baculovirus, Bac-to-Bac)
T2 sequence (Q07343 330-659 limits assumed): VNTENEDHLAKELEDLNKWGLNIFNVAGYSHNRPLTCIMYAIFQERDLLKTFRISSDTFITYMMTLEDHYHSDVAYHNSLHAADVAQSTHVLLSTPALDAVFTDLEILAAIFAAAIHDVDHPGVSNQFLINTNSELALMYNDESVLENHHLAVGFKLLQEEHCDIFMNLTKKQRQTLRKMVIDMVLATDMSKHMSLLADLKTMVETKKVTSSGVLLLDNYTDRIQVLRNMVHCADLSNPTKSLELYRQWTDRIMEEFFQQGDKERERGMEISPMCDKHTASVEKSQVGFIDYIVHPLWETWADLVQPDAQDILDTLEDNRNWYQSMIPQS
Experimental: as §1, §2

[3] = test system: histamine-induced bronchoconstriction; assay: Histamine-induced bronchoconstriction in guinea pigs; format: in vivo, guinea pig; conditions: Cavia porcellus, iv, 0.5 min, 30 seconds after administration, histamine 12.5 μg/kg i.v.; for inhibition in vivo at 1 mg/kg: test compound 1 mg/kg i.v.; for inhibition in vivo at 0.1 mg/kg: values in brackets: test compound 0.1 mg/kg, i.v.
Experimental: Guinea pigs were anesthetized with pentobarbital (30 mg/kg, i.p.). A cannula for IV administeration, a cannula for collecting blood and measurement of blood pressure and a trachea cannula were inserted into the left exterior jugular vein, right interior carotid artery and trachea, respectively. The animals were placed under artificial respiration at 60 times/min and 10 mL/kg/stroke. The airflow through the branch of the tracheal cannula was measured by a bronchospasm transducer (Ugo-Basile) and recorded on a computer via Power Lab (ADInstruments Japan). The animals were immobilized with gallamine (10 mg/kg, i.v.), then administered histamine at 10-minute intervals (12.5 μg/kg, i.v.). […] To examine the inhibitory activity of test compound, the histamine-induced bronchoconstriction was measured after 30 seconds of drug administration. The bronchoconstriction was recorded as the change of the airflow: The results were shown by percentages of the maximum histamine-induced bronchoconstriction. Each test compound was prepared as a 10 mg/mL solution in DMSO. Gallamine was prepared as a 10 mg/mL solution in physiological saline. Histamine was prepared as a 1 mg/mL solution in physiological saline, which was diluted with physiological saline to 62.5 μg/mL for use.

Structure (SMILES) | IC50 [1] [µmol/L] | IC50 [2] [µmol/L] | inhibition in vivo at 1 mg/kg [3] [%] | inhibition in vivo at 0.1 mg/kg [3] [%]
CCc1nn2cc(Cl)cc(C3=NNC(=O)CC3C)c2c1Cl (stereo not drawn) [Example 203] | > 10 | 0.1 to 1 | 70 to 80 | 
CCOC(=O)c1ccc(C2=NNC(=O)CC2C)c2cc(CC)nn12 (stereo not drawn) [Example 204] | 1 to 10 | 1 to 10 |  | 
COc1ccc(C2=NNC(=O)CC2)c2cc(C(F)(F)F)nn12 [Example 209, 6-(7-methoxy-2-trifluoromethyl-pyrazolo[1,5-a]pyridine-4-yl)-4,5-dihydro-3-(2H)-pyridazinone] | > 10 | 0.1 to 1 |  | 80 to 90
CCC1CC(=O)NN=C1c1ccc(OC)n2nc(C(F)(F)F)cc12 (stereo not drawn) [Example 212] | > 10 | < 1 |  | 
CCc1nn2c(OC)ccc(C3=NNC(=O)CC3C)c2c1Cl (stereo not drawn) [Example 213] | > 10 | 0.1 to 1 | 70 to 80 | 
COc1ccc(C2=NNC(=O)CC2C)c2ccnn12 (stereo not drawn) [Example 214] | < 1 | 1 to 10 |  | 80 to 90
COc1ccc(C2=NNC(=O)CC2C)c2cc(C)nn12 (stereo not drawn) [Example 215] | 1 to 10 | 0.1 to 1 |  | 80 to 90
CCCc1cc2c(C3=NNC(=O)CC3C)ccc(OC)n2n1 (stereo not drawn) [Example 217] | 1 to 10 | 0.1 to 1 |  | ≥ 90
COc1ccc(C2=NNC(=O)CC2C)c2cc(C3CC3)nn12 (stereo not drawn) [Example 218] | 1 to 10 | 0.1 to 1 |  | ≥ 90
COc1ccc(C2=NNC(=O)CC2C)c2cc(SC)nn12 (stereo not drawn) [Example 219] |  | 0.1 to 1 |  | ≥ 90
COCc1cc2c(C3=NNC(=O)CC3C)ccc(OC)n2n1 (stereo not drawn) [Example 220] | 1 to 10 | 0.1 to 1 |  | ≥ 90
COc1ccc(C2=NNC(=O)CC2C)c2cc(CO)nn12 (stereo not drawn) [Example 221] | 1 to 10 | 1 to 10 |  | 
COc1ccc(C2=NNC(=O)CC2C)c2cc(C(F)F)nn12 (stereo not drawn) [Example 222] | 1 to 10 | < 1 |  | 70 to 80
CCc1cc2c(C3=NNC(=O)CC3C)ccc(SC)n2n1 (stereo not drawn) [Example 223] | 1 to 10 | 0.1 to 1 |  | ≥ 90
CCc1cc2c(C3=NNC(=O)CC3C)ccc(N(C)C)n2n1 (stereo not drawn) [Example 224] | 1 to 10 | 0.1 to 1 |  | 
CCc1cc2c(C3=NNC(=O)CC3C)ccc(NC)n2n1 (stereo not drawn) [Example 225] | 1 to 10 | < 1 |  | 80 to 90
CCc1cc2c(C3=NNC(=O)CC3C)ccc(N3CCOCC3)n2n1 (stereo not drawn) [Example 226] | 1 to 10 | > 10 |  | 
CCc1cc2c(C3=NNC(=O)CC3C)ccc(NC(C)=O)n2n1 (stereo not drawn) [Example 228] | 1 to 10 | > 10 |  | 
CCc1cc2c(C3=NNC(=O)CC3C)ccc(-c3ccccc3)n2n1 (stereo not drawn) [Example 229] | 1 to 10 | 1 to 10 |  | 

Structure (SMILES) | IC50 [1] [µmol/L] | IC50 [2] [µmol/L] | inhibition in vivo at 1 mg/kg [3] [%] | inhibition in vivo at 0.1 mg/kg [3] [%]
CCc1cc2c(C3=NNC(=O)CC3C)ccc(C(C)=O)n2n1 (stereo not drawn) [Example 235, 6-(7-acetyl-2-ethyl-pyrazolo[1,5-a]pyridine-4-yl)-4,5-dihydro-5-methyl-3-(2H)-pyridazinone] |  |  |  | ≥ 90
COc1ccc(C2=NNC(=O)CC2C)c2cc(CF)nn12 (stereo not drawn) [Example 236, 6-(2-fluoromethyl-7-methoxy-pyrazolo[1,5-a]pyridine-4-yl)-4,5-dihydro-5-methyl-3-(2H)-pyridazinone] | 1 to 10 | 0.1 to 1 |  | 
COc1ccc(C2=NNC(=O)CC2C)c2cc(C(C)O)nn12 (stereo not drawn) [Example 238, 6-[2-(1-hydroxyethyl)-7-methoxy-pyrazolo[1,5-a]pyridine-4-yl]-4,5-dihydro-5-methyl-3-(2H)-pyridazinone] | 1 to 10 | < 1 |  | 
C=Cc1cc2c(C3=NNC(=O)CC3C)ccc(OC)n2n1 (stereo not drawn) [Example 239, 6-(7-methoxy-2-vinyl-pyrazolo[1,5-a]pyridine-4-yl)-4,5-dihydro-5-methyl-3-(2H)-pyridazinone] |  |  |  | ≥ 90
COc1ccc(C2=NNC(=O)CC2C)c2cc(C(C)F)nn12 (stereo not drawn) [Example 240, 6-[2-(1-fluoroethyl)-7-methoxy-pyrazolo[1,5-a]pyridine-4-yl]-4,5-dihydro-5-methyl-3-(2H)-pyridazinone] | 1 to 10 | < 1 |  | ≥ 90
COc1ccc(C2=NNC(=O)CC2C)c2cc(C(C)=O)nn12 (stereo not drawn) [Example 241, 6-(2-acetyl-7-methoxy-pyrazolo[1,5-a]pyridine-4-yl)-4,5-dihydro-5-methyl-3-(2H)-pyridazinone] | 1 to 10 | < 1 |  | ≥ 90
CCOc1ccc(C2=NNC(=O)CC2C)c2cc(CC)nn12 (stereo not drawn) [Example 244, 6-(7-ethoxy-2-ethyl-pyrazolo[1,5-a]pyridine-4-yl)-4,5-dihydro-5-methyl-3-(2H)-pyridazinone] | 1 to 10 | 1 to 10 |  | 
CCc1cc2c(C3=NNC(=O)CC3C)ccc(OC(C)C)n2n1 (stereo not drawn) [Example 245, 6-(7-isopropoxy-2-ethyl-pyrazolo[1,5-a]pyridine-4-yl)-4,5-dihydro-5-methyl-3-(2H)-pyridazinone] | 1 to 10 | > 10 |  | ≥ 90
CCc1cc2c(C3=NNC(=O)CC3C)ccc(NCCO)n2n1 (stereo not drawn) [Example 247, 6-[2-ethyl-7-(2-hydroxyethylamino)-pyrazolo[1,5-a]pyridine-4-yl]-4,5-dihydro-5-methyl-3-(2H)-pyridazinone] | 1 to 10 | 1 to 10 |  | 70 to 80
CCc1cc2c(C3=NNC(=O)CC3C)ccc([S+](C)[O-])n2n1 (stereo not drawn) [Example 249, 6-(2-ethyl-7-methylsulfinyl-pyrazolo[1,5-a]pyridine-4-yl)-4,5-dihydro-5-methyl-3-(2H)-pyridazinone] | 1 to 10 | < 1 |  | ≥ 90
CCc1cc2c(C3=NNC(=O)CC3C)ccc(S(C)(=O)=O)n2n1 (stereo not drawn) [Example 251, 6-(2-ethyl-7-methylsulfonyl-pyrazolo[1,5-a]pyridine-4-yl)-4,5-dihydro-5-methyl-3-(2H)-pyridazinone] | 1 to 10 | 1 to 10 |  | 
CCc1nn2c(S(C)(=O)=O)ccc(C3=NNC(=O)CC3C)c2c1O (stereo not drawn) [Example 252] | 1 to 10 | 1 to 10 |  | 
COc1ccc(-c2ccc(=O)n(Cc3ccccn3)n2)c2cc(C(C)C)nn12 [Example 274] | > 10 | 0.1 to 1 |  | 
COc1ccc(-c2ccc(=O)n(Cc3ccncc3)n2)c2cc(C(C)C)nn12 [Example 275] | > 10 | 1 to 10 |  | 
COc1ccc(-c2n[nH]c(=O)cc2C)c2c(F)c(C(C)C)nn12 [Example 279, 6-(3-fluoro-7-methoxy-2-isopropyl-pyrazolo[1,5-a]pyridine-4-yl)-5-methyl-3-(2H)-pyridazinone] | > 10 | 0.1 to 1 |  | 
CCc1cc2c(C3=NN(Cc4cccnc4)C(=O)CC3C)cc(F)cn2n1 (stereo not drawn) [Example 287, 6-(2-ethyl-6-fluoro-pyrazolo[1,5-a]pyridine-4-yl)-4,5-dihydro-5-methyl-2-(pyridine-3-ylmethyl)-3-(2H)-pyridazinone] | > 10 | 1 to 10 |  | 
COc1ccc(-c2nn(C)c(=O)cc2C)c2cc(C(C)C)nn12 [Example 297] | > 10 | < 1 |  | 
COc1ccc(-c2cc(C)c(=O)n(Cc3cccnc3)n2)c2cc(C(C)C)nn12 [Example 299] | > 10 | < 1 |  | 
COc1ccc(-c2n[nH]c(=O)cc2C)c2cc(C(F)(F)F)nn12 [Example 303] | > 10 | 1 to 10 |  | 
